Laboratory results reported in ChEMBL document CHEMBL1152295, “Novel 3,3-disubstituted pyrrolidines as selective triple serotonin/norepinephrine/dopamine reuptake inhibitors” (Bioorg Med Chem Lett, 2008).

Legend:
in vitro [1] = details: human
in vitro [2] = details: human, liver microsomes
in vitro [3] = details: human; remark: listed apart in the source
Caco-2 [4] = details: human, caco-2, 10 µM
Caco-2 [5] = details: human, caco-2, 10 µM; remark: listed apart in the source

Row | SMILES | Papp B→A at 10 µM (in vitro [1]; Caco-2, Papp) | microsomal CLint (in vitro [2]; Stability) | Papp A→B at 10 µM (in vitro [3]; Caco-2, Papp) | further results
1 | c1ccc(CC2(c3ccc4sccc4c3)CCNC2)cc1 (stereo not drawn) | – | 198 µL/min/mg | – | –
2 | CCOC(=O)c1cc2cc(C3(Cc4ccccc4)CCNC3)ccc2[nH]1 (stereo not drawn) | 3.4 ×10⁻⁶ cm/s | 47.8 µL/min/mg | 3.5 ×10⁻⁶ cm/s | –
3 | CCCC1(c2ccc3[nH]ccc3c2)CCNC1 (stereo not drawn) | – | – | – | Papp B→A at 10 µM (in vitro [1]; Caco-2): 24 ×10⁻⁶ cm/s; microsomal CLint (in vitro [2]): 2.3 µL/min/mg; Papp A→B at 10 µM (in vitro [3]; Caco-2): 16.5 ×10⁻⁶ cm/s
4 | NC(=O)c1cc2cc(C3(Cc4ccccc4)CCNC3)ccc2[nH]1 (stereo not drawn) | 17 ×10⁻⁶ cm/s | 1.4 µL/min/mg | 0.6 ×10⁻⁶ cm/s | –
5 | c1ccc(CC2(c3ccc4[nH]ccc4c3)CCNC2)cc1 (stereo in doubt; 16) [5-(3-BENZYLPYRROLIDIN-3-YL)-1H-INDOLE (STRUCTURAL MIX)] | – | – | – | Papp (Caco-2 [4]): 14 ×10⁻⁶ cm/s; Papp (Caco-2 [5]): 17 ×10⁻⁶ cm/s
6 | Cn1ccc2cc(C3(Cc4ccccc4)CCNC3)ccc21 (stereo not drawn) | – | 106 µL/min/mg | – | –
7 | CCCCC1(c2ccc3[nH]ccc3c2)CCNC1 (stereo not drawn) | 19 ×10⁻⁶ cm/s | 38 µL/min/mg | 9.4 ×10⁻⁶ cm/s | –
8 | Clc1ccc([C@]23CNC[C@H]2C3)cc1Cl [AMITIFADINE] | – | – | – | Papp B→A at 10 µM (in vitro [1]; Caco-2): 2.1 ×10⁻⁶ cm/s; microsomal CLint (in vitro [2]): 47 µL/min/mg; Papp A→B at 10 µM (in vitro [3]; Caco-2): 2.9 ×10⁻⁶ cm/s
9 | CN(C)C(=O)c1cc2cc(C3(Cc4ccccc4)CCNC3)ccc2[nH]1 (stereo not drawn) | 24 ×10⁻⁶ cm/s | 12.8 µL/min/mg | 4 ×10⁻⁶ cm/s | –

Further lines, with some results ahead:

Row | Papp B→A at 10 µM (in vitro [1]; Caco-2, Papp) | microsomal CLint (in vitro [2]; Stability) | Papp A→B at 10 µM (in vitro [3]; Caco-2, Papp) | SMILES | further results
10 | 18 ×10⁻⁶ cm/s | 86 µL/min/mg | 3.2 ×10⁻⁶ cm/s | c1ccc(CC2(c3ccc4[nH]ccc4c3)CCNC2)nc1 (stereo not drawn) | –
11 | 9.9 ×10⁻⁶ cm/s | 154 µL/min/mg | 21 ×10⁻⁶ cm/s | c1ccc(CC2(c3ccc4[nH]ccc4c3)CCNC2)cc1 (stereo in doubt; (+)-16) [5-(3-BENZYLPYRROLIDIN-3-YL)-1H-INDOLE (STRUCTURAL MIX)] | –
12 | – | 84 µL/min/mg | – | Fc1ccc(CC2(c3ccc4[nH]ccc4c3)CCNC2)cc1 (stereo not drawn) | –
13 | 22 ×10⁻⁶ cm/s | 28 µL/min/mg | 10 ×10⁻⁶ cm/s | c1ccc(CC2(c3ccc4[nH]ncc4c3)CCNC2)cc1 (stereo not drawn) | –
14 | – | 77 µL/min/mg | – | COc1cccc(CC2(c3ccc4[nH]ccc4c3)CCNC2)c1 (stereo not drawn) | –
